Earlier results in PMC7955776 (Investigational new drugs, 2020).

Test system: metastatic TNBC
Details: in combination with first line docetaxel, metastatic TNBC patients; cited from earlier work

## CCC[C@H](N[C@H]1CCc2cc(F)cc(F)c2C1)C(=O)Nc1cn(C(C)(C)CNCC(C)(C)C)cn1 [PF-03084014]
  Partial response: 16%
  Stable disease: 36%
